According to patent US20230183237A1, “COMPETITIVE AND NONCOMPETITIVE INHIBITORS OF THE MUSCARINIC ACETYLCHOLINE RECEPTOR M5” (Vanderbilt University, priority 2020, published 2023):

molecular target: T1, hM5 (Homo sapiens, UniProt P08912); assay: Calcium mobilization concentration-response (IC50 vs EC80 acetylcholine), CHO hM5; assay type: cell-based; details: CELL LINE hM5; vs EC80 acetylcholine; read-out: IC50
T1 construct: expressed in transfected cells
T1 sequence (P08912 1-532): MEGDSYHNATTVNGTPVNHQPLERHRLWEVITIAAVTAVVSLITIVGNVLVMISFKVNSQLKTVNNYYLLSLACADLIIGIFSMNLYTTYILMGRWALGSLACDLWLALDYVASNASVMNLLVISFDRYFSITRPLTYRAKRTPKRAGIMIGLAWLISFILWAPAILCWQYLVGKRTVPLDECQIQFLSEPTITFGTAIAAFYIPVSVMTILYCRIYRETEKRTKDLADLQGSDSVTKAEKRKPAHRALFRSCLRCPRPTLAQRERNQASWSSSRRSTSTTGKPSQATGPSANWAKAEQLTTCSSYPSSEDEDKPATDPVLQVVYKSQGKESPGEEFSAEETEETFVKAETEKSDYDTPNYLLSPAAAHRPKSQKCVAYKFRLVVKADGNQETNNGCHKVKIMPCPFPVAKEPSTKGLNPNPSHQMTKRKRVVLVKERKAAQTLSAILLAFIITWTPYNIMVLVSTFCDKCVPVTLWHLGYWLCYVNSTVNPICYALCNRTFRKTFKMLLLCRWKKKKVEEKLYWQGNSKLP
Outline: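 CHO cells stably expressing hM5, dye-loaded, in HBSS/20 mM HEPES/2.5 mM probenecid, pH 7.4. Compounds were pre-incubated 140 s before an EC80 acetylcholine challenge, with calcium flux read kinetically.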

Row | SMILES | IC50 [nM]
1 | Cn1cc(S(=O)(=O)N2CCC(c3cn4ncnc4cc3C(F)(F)F)CC2)nn1 [Compound 563, 6-(1-((1-methyl-1H-1,2,3-triazol-4-yl)sulfonyl)piperidin-4-yl)-7-(trifluoromethyl)-[1,2,4]triazolo[1,5-a]pyridine] | 234
2 | Cc1ncc(S(=O)(=O)N2CCC(c3cnc(N(C)C)cc3C)CC2)o1 [Compound 564, N,N,4-trimethyl-5-(1-((2-methyloxazol-5-yl)sulfonyl)piperidin-4-yl)pyridin-2-amine] | 94
3 | Cc1cc(S(=O)(=O)N2CCC(c3cnc(N(C)C)cc3C)CC2)sn1 [Compound 565, N,N,4-trimethyl-5-(1-((3-methylisothiazol-5-yl)sulfonyl)piperidin-4-yl)pyridin-2-amine] | 38
4 | Cc1cc(N(C)C)ncc1C1CCN(S(=O)(=O)c2cnc3sccn23)CC1 [Compound 566, 5-(1-(imidazo[2,1-b]thiazol-5-ylsulfonyl)piperidin-4-yl)-N,N,4-trimethylpyridin-2-amine] | 16
5 | [2H]C1([2H])CC(c2cn3ncnc3cc2F)CC([2H])([2H])N1S(=O)(=O)c1cnc(C)o1 [Compound 567, 5-((4-(7-fluoro-[1,2,4]triazolo[1,5-a]pyridin-6-yl)piperidin-1-yl-2,2,6,6-d4)sulfonyl)-2-methyloxazole] | 1390
6 | [2H]C1([2H])CC(c2cn3ncnc3cc2C)CC([2H])([2H])N1S(=O)(=O)c1cnc(C)o1 [Compound 568, 2-methyl-5-((4-(7-methyl-[1,2,4]triazolo[1,5-a]pyridin-6-yl)piperidin-1-yl-2,2,6,6-d4)sulfonyl)oxazole] | 47
7 | [2H]C1([2H])CC(c2cn3ncnc3c(F)c2C)CC([2H])([2H])N1S(=O)(=O)c1cnc(C)o1 [Compound 569, 5-((4-(8-fluoro-7-methyl-[1,2,4]triazolo[1,5-a]pyridin-6-yl)piperidin-1-yl-2,2,6,6-d4)sulfonyl)-2-methyloxazole] | 174
8 | Cn1cc(S(=O)(=O)N2CCC(c3cn4ncnc4cc3F)CC2)nn1 [Compound 571, 7-fluoro-6-(1-((1-methyl-1H-1,2,3-triazol-4-yl)sulfonyl)piperidin-4-yl)-[1,2,4]triazolo[1,5-a]pyridine] | > 10000
9 | Cc1cc2ncnn2cc1C1CCN(S(=O)(=O)c2cn(C)nn2)CC1 [Compound 572, 7-methyl-6-(1-((1-methyl-1H-1,2,3-triazol-4-yl)sulfonyl)piperidin-4-yl)-[1,2,4]triazolo[1,5-a]pyridine] | 42
10 | COc1c(S(=O)(=O)N2CCC(c3cn4ncnc4cc3C)CC2)cnn1C [Compound 573, 6-(1-((5-methoxy-1-methyl-1H-pyrazol-4-yl)sulfonyl)piperidin-4-yl)-7-methyl-[1,2,4]triazoto[1,5-a]pyridine] | 12
11 | COc1c(S(=O)(=O)N2CCC(c3cn4ncnc4cc3F)CC2)cnn1C [Compound 574, 7-fluoro-6-(1-((5-methoxy-1-methyl-1H-pyrazol-4-yl)sulfonyl)piperidin-4-yl)-[1,2,4]triazolo[1,5-a]pyridine] | 137
12 | COc1c(S(=O)(=O)N2CCC(c3cn4ncnc4cc3Cl)CC2)cnn1C [Compound 575, 7-chloro-6-(1-((5-methoxy-1-methyl-1H-pyrazol-4-yl)sulfonyl)piperidin-4-yl)-[1,2,4]triazolo[1,5-a]pyridine] | 6
13 | COc1c(S(=O)(=O)N2CCC(c3cn4ncnc4c(F)c3C)CC2)cnn1C [Compound 576, 8-fluoro-6-(1-((5-methoxy-1-methyl-1H-pyrazol-4-yl)sulfonyl)piperidin-4-yl)-7-methyl-[1,2,4]triazolo[1,5-a]pyridine] | 19
14 | Cc1cc2ncnn2cc1C1CCN(S(=O)(=O)c2cnn(C)c2C2CCNCC2)CC1 [Compound 577, 7-Methyl-6-(1-((1-methyl-5-(piperidin-4-yl)-1H-pyrazol-4-yl)sulfonyl)piperidin-4-yl)-[1,2,4]triazolo[1,5-a]pyridine] | > 10000
